Where no end group is shown, it is not given here. [ ]: non-standard residue; d: D form. Lys(Me2) = CN(C)CCCC[C@H](N)C(=O)O; Lys(Me) = CNCCCC[C@H](N)C(=O)O
Experiments:
Test in all cases: Histone peptide microarray
Assay type in all cases: binding, human
Settings in all cases: sheet "Array Heatmap"
[1] = system: AIRE (PP)
Summary of the method: (§1)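 GST-tagged PHD readers, 0.5 μM, probed on a microarray of 293 synthetic histone peptides carrying single or combinatorial PTMs (optimized Petell protocol). Signals are averaged over 4 replicates and expressed as relative binding.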

[2] = system: BAZ2B
Summary of the method: as §1

[3] = system: BPTF (PB)
Summary of the method: as §1

[4] = system: CHD4 (PPCC)
Summary of the method: as §1

[5] = system: CHD5 (PCC)
Summary of the method: as §1

[6] = system: CHD5 (PPCC)
Summary of the method: as §1

[7] = system: DIDO1
Summary of the method: as §1

[8] = system: DPF2 (PPC2W2)
Summary of the method: as §1

[9] = system: ING1
Summary of the method: as §1

[10] = system: ING2
Summary of the method: as §1

[11] = system: ING3
Summary of the method: as §1

[12] = system: ING4
Summary of the method: as §1

[13] = system: ING5
Summary of the method: as §1

[14] = system: KDM4C (TTP)
Summary of the method: as §1

[15] = system: KDM5A (1)
Summary of the method: as §1

[16] = system: KDM5A (3)
Summary of the method: as §1

[17] = system: KDM5B (1)
Summary of the method: as §1

[18] = system: KDM5B (3)
Summary of the method: as §1

[19] = system: KDM7A
Summary of the method: as §1

[20] = system: MLL5
Summary of the method: as §1

[21] = system: MORC3 (CW)
Summary of the method: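 Readout is array binding signal, reported as the mean and standard deviation over four replicates. Each purified GST-fused PHD domain was incubated at 0.5 μM with a library of 293 modified histone peptides.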

[22] = system: PHF13
Summary of the method: as §1

[23] = system: PHF21A
Summary of the method: as §1

[24] = system: PHF23
Summary of the method: as §1

[25] = system: PHF2
Summary of the method: as §1

[26] = system: PHF8
Summary of the method: as §1

[27] = system: PHRF1 (RP)
Summary of the method: as §1

[28] = system: RAG2
Summary of the method: as §1

[29] = system: SP140L
Summary of the method: as §1

[30] = system: TAF3
Summary of the method: as §1

[31] = system: TRIM66 (PB)
Summary of the method: as §1

[32] = GST-tagged reader, histone peptide array, total n = 4

H3R17me2a + K18ac (1-25): H3 1-25
Array Heatmap signal, AIRE (PP) [1, 32]: 0.3677
Array Heatmap signal, BAZ2B [2, 32]: 0.3556
Array Heatmap signal, BPTF (PB) [3, 32]: 0.2769
Array Heatmap signal, CHD4 (PPCC) [4, 32]: 0.4858
Array Heatmap signal, CHD5 (PCC) [5, 32]: 0.615
Array Heatmap signal, CHD5 (PPCC) [6, 32]: 0.4057
Array Heatmap signal, DIDO1 [7, 32]: 0.5785
Array Heatmap signal, DPF2 (PPC2W2) [8, 32]: 0.608
Array Heatmap signal, ING1 [9, 32]: 0.4981
Array Heatmap signal, ING2 [10, 32]: 0.5776
Array Heatmap signal, ING3 [11, 32]: 0.4176
Array Heatmap signal, ING4 [12, 32]: 0.3381
Array Heatmap signal, ING5 [13, 32]: 0.251
Array Heatmap signal, KDM4C (TTP) [14, 32]: 0.324
Array Heatmap signal, KDM5A (1) [15, 32]: 0.3724
Array Heatmap signal, KDM5A (3) [16, 32]: 0.5578
Array Heatmap signal, KDM5B (1) [17, 32]: 0.6531
Array Heatmap signal, KDM5B (3) [18, 32]: 0.4124
Array Heatmap signal, KDM7A [19, 32]: 0.2298
Array Heatmap signal, MLL5 [20, 32]: 0.4712
Array Heatmap signal, MORC3 (CW) [21, 32]: 0.4929
Array Heatmap signal, PHF13 [22, 32]: 0.4521
Array Heatmap signal, PHF21A [23, 32]: 0.3605
Array Heatmap signal, PHF23 [24, 32]: 0.4823
Array Heatmap signal, PHF2 [25, 32]: 0.4874
Array Heatmap signal, PHF8 [26, 32]: 0.2767
Array Heatmap signal, PHRF1 (RP) [27, 32]: 0.7492
Array Heatmap signal, RAG2 [28, 32]: 0.2079
Array Heatmap signal, SP140L [29, 32]: 0.2916
Array Heatmap signal, TAF3 [30, 32]: 0.2141
Array Heatmap signal, TRIM66 (PB) [31, 32]: 0.6221

H3K79me1: H3 74-84 (IAQDF[Lys(Me)]TDLRF; UniProt P68431 75-85, looked up, fragment) [Peptide H3K79me1]
Array Heatmap signal, AIRE (PP) [1, 32]: 0.5028
Array Heatmap signal, BAZ2B [2, 32]: 0.4958
Array Heatmap signal, BPTF (PB) [3, 32]: 0.3836
Array Heatmap signal, CHD4 (PPCC) [4, 32]: 0.5797
Array Heatmap signal, CHD5 (PCC) [5, 32]: 0.8253
Array Heatmap signal, CHD5 (PPCC) [6, 32]: 0.6031
Array Heatmap signal, DIDO1 [7, 32]: 0.782
Array Heatmap signal, DPF2 (PPC2W2) [8, 32]: 0.6501
Array Heatmap signal, ING1 [9, 32]: 0.5242
Array Heatmap signal, ING2 [10, 32]: 0.6117
Array Heatmap signal, ING3 [11, 32]: 0.5268
Array Heatmap signal, ING4 [12, 32]: 0.4724
Array Heatmap signal, ING5 [13, 32]: 0.4005
Array Heatmap signal, KDM4C (TTP) [14, 32]: 0.5424
Array Heatmap signal, KDM5A (1) [15, 32]: 0.5083
Array Heatmap signal, KDM5A (3) [16, 32]: 0.5745
Array Heatmap signal, KDM5B (1) [17, 32]: 0.6942
Array Heatmap signal, KDM5B (3) [18, 32]: 0.5123
Array Heatmap signal, KDM7A [19, 32]: 0.422
Array Heatmap signal, MLL5 [20, 32]: 0.6083
Array Heatmap signal, MORC3 (CW) [21, 32]: 0.4301
Array Heatmap signal, PHF13 [22, 32]: 0.6611
Array Heatmap signal, PHF21A [23, 32]: 0.4933
Array Heatmap signal, PHF23 [24, 32]: 0.5609
Array Heatmap signal, PHF2 [25, 32]: 0.4403
Array Heatmap signal, PHF8 [26, 32]: 0.4078
Array Heatmap signal, PHRF1 (RP) [27, 32]: 0.4478
Array Heatmap signal, RAG2 [28, 32]: 0.2827
Array Heatmap signal, SP140L [29, 32]: 0.3558
Array Heatmap signal, TAF3 [30, 32]: 0.2923
Array Heatmap signal, TRIM66 (PB) [31, 32]: 0.6065

H3K4A + K9me2 (1-15): H3 1-15 (ARTAQTAR[Lys(Me2)]STGGKA; UniProt P68431 2-16, looked up, variant K4A)
Array Heatmap signal, AIRE (PP) ([1]; GST-tagged AIRE (PP), arrays performed twice, total replicate number n = 4): 0.5312
Array Heatmap signal, BAZ2B ([2]; GST-tagged BAZ2B, arrays performed twice, total replicate number n = 4): 0.512
Array Heatmap signal, BPTF (PB) ([3]; GST-tagged BPTF (PB), arrays performed twice, total replicate number n = 4): 0.4333
Array Heatmap signal, CHD4 (PPCC) ([4]; GST-tagged CHD4 (PPCC), arrays performed twice, total replicate number n = 4): 0.6182
Array Heatmap signal, CHD5 (PCC) ([5]; GST-tagged CHD5 (PCC), arrays performed twice, total replicate number n = 4): 0.7736
Array Heatmap signal, CHD5 (PPCC) ([6]; GST-tagged CHD5 (PPCC), arrays performed twice, total replicate number n = 4): 0.6167
Array Heatmap signal, DIDO1 ([7]; GST-tagged DIDO1, arrays performed twice, total replicate number n = 4): 0.8787
Array Heatmap signal, DPF2 (PPC2W2) ([8]; GST-tagged DPF2 (PPC2W2), arrays performed twice, total replicate number n = 4): 0.7164
Array Heatmap signal, ING1 ([9]; GST-tagged ING1, arrays performed twice, total replicate number n = 4): 0.7124
Array Heatmap signal, ING2 ([10]; GST-tagged ING2, arrays performed twice, total replicate number n = 4): 0.695
Array Heatmap signal, ING3 ([11]; GST-tagged ING3, arrays performed twice, total replicate number n = 4): 0.5843
Array Heatmap signal, ING4 ([12]; GST-tagged ING4, arrays performed twice, total replicate number n = 4): 0.5574
Array Heatmap signal, ING5 ([13]; GST-tagged ING5, arrays performed twice, total replicate number n = 4): 0.4518
Array Heatmap signal, KDM4C (TTP) ([14]; GST-tagged KDM4C (TTP), arrays performed twice, total replicate number n = 4): 0.6461
Array Heatmap signal, KDM5A (1) ([15]; GST-tagged KDM5A (1), arrays performed twice, total replicate number n = 4): 0.5206
Array Heatmap signal, KDM5A (3) ([16]; GST-tagged KDM5A (3), arrays performed twice, total replicate number n = 4): 0.6587
Array Heatmap signal, KDM5B (1) ([17]; GST-tagged KDM5B (1), arrays performed twice, total replicate number n = 4): 0.7016
Array Heatmap signal, KDM5B (3) ([18]; GST-tagged KDM5B (3), arrays performed twice, total replicate number n = 4): 0.59
Array Heatmap signal, KDM7A ([19]; GST-tagged KDM7A, arrays performed twice, total replicate number n = 4): 0.6423
Array Heatmap signal, MLL5 ([20]; GST-tagged MLL5, arrays performed twice, total replicate number n = 4): 0.7648
Array Heatmap signal, MORC3 (CW) ([21]; GST-tagged MORC3 (CW), arrays performed twice, total replicate number n = 4): 0.5677
Array Heatmap signal, PHF13 ([22]; GST-tagged PHF13, arrays performed twice, total replicate number n = 4): 0.6939
Array Heatmap signal, PHF21A ([23]; GST-tagged PHF21A, arrays performed twice, total replicate number n = 4): 0.468
Array Heatmap signal, PHF23 ([24]; GST-tagged PHF23, arrays performed twice, total replicate number n = 4): 0.6377
Array Heatmap signal, PHF2 ([25]; GST-tagged PHF2, arrays performed twice, total replicate number n = 4): 0.6167
Array Heatmap signal, PHF8 ([26]; GST-tagged PHF8, arrays performed twice, total replicate number n = 4): 0.5196
Array Heatmap signal, PHRF1 (RP) ([27]; GST-tagged PHRF1 (RP), arrays performed twice, total replicate number n = 4): 0.5557
Array Heatmap signal, RAG2 ([28]; GST-tagged RAG2, arrays performed twice, total replicate number n = 4): 0.4111
Array Heatmap signal, SP140L ([29]; GST-tagged SP140L, arrays performed twice, total replicate number n = 4): 0.3864
Array Heatmap signal, TAF3 ([30]; GST-tagged TAF3, arrays performed twice, total replicate number n = 4): 0.4571
Array Heatmap signal, TRIM66 (PB) ([31]; GST-tagged TRIM66 (PB), arrays performed twice, total replicate number n = 4): 0.6262

Reference: PMC6979384, “Characterization of the plant homeodomain (PHD) reader family for their histone tail interactions” (Epigenetics & Chromatin, 2020)
